Series [1] relates to human embryonic stem cell derived neural stem cells (NSCs). Kind of series: Neural stem cell proliferation assay (neurogenesis assay, ATP levels by CellTiterGlo). The series is classed as cell-based. The following applies: 96 h, concentration at which 150% activity of control (100%) is reached, NSC proliferation, ATP levels after 4 days incubation, dose response 8 μM to 8 nM. The method, then: Neural Stem Cell Proliferation Assay
Neurogenic properties of small molecules are determined based on the proliferation of human embryonic stem cell derived neural stem cells (NSCs) which were derived via a dual smad inhibition as previously described (Chambers, S. M., et al., Highly efficient neural conversion of human ES and iPS cells by dual inhibition of SMAD signaling, Nature biotechnology, 2009. 27(3): p. 275-80.)
Compounds respond is measured by the increase in cells based on ATP levels (Promega:CellTiterGlo®) after an incubation period of 4 days.
NSCs are thawed and expanded over 3 passages. On the 14th day, NSCs are seeded in Polyornithin/Laminin coated 384 well plates at a cell density of 21′000 cells/cm^2 in a media volume of 38 μl. 4 hours after cell seeding, compound solutions are added at a volume of 2 μl. Stock solutions of the compounds (water, 5% DMSO) are diluted to obtain a dose response (11 points, dilution factor is 2), ranging from 8 μM to 8 nM. Controls are run to consistently determine the neurogenic properties of the cells:
Negative (neutral) control is cell culture Media (final DMSO concentration: 0.25%).
1. cell culture Media+100 ng/ml FGF2 (final DMSO concentration: 0.1%)
2. cell culture Media+20 ng/ml EGF (final DMSO concentration: 0.1%)
3. cell culture Media+100 ng/ml Wnt3a (final DMSO concentration: 0.1%)
After 4 days incubation at 37° C., 5% CO2, the amount of ATP per well is quantified. The ATP concentration is proportional to the cell number. ATP is quantified by using the Promega CellTiterGlo® kit. The CellTiterGlo® reagents contain a cell lysis buffer, a thermo stable luciferase (UltraGlo™ recombinant luciferase), magnesium and luciferin. Luciferin reacts with ATP producing oxyluciferin, AMP and light. The luminescence signal is proportional to the ATP content.
The value of negative (neutral) control is determined for each assay plate by taking the average of 16 negative control wells. The neurogenic compound response is calculated for each compound as (compound/Negative Control)*100.
The values of EC150 from the dose response curve are determined for each test compound. The EC150 is the compound concentration at which 150% activity of control (100%) is reached.
A general note: In ATP-based viability assays light output follows the ATP content of the culture.

The results in this text go back to patent US9586966B2, “Piperazino[1,2-a]indol-1-ones and [1,4]diazepino[1,2-a]indol-one” (Hoffmann-La Roche Inc., priority 2013, dated 2017).

As usually defined, the melting point is the temperature, or range, at which the solid turns liquid.

In turn, `Cc1cc(F)cc2cc3n(c12)CCCNC3=O` [Example 1, 9-Fluoro-7-methyl-2,3,4,5-tetrahydro-[1,4]diazepino[1,2-a]indol-1-one] returned a melting point of 198 °C. In series [1], this compound displayed an EC (150% of control) of 0.21 µM.

Regarding `Cc1cc(F)cc2cc3n(c12)CCNC3=O` [Example 2, 8-Fluoro-6-methyl-3,4-dihydro-2H-pyrazino[1,2-a]indol-1-one], the melting point is 250.5 °C. In addition, the EC (150% of control) in series [1] came to 0.17 µM.

Consider `Cc1c2n(c3c(CC(C)C)cc(F)cc13)CCNC2=O` [Example 3, 8-Fluoro-6-isobutyl-10-methyl-3,4-dihydro-2H-pyrazino[1,2-a]indol-1-one], for which the melting point was 189 °C. For the same compound, in series [1], the EC (150% of control) amounted to 0.009 µM.

Compound `Cc1c2n(c3ccc(F)cc13)CCNC2=O` [Example 4, 8-Fluoro-10-methyl-3,4-dihydro-2H-pyrazino[1,2-a]indol-1-one] displayed a melting point of 230 °C. Besides, in series [1], the EC (150% of control) was found to be 0.31 µM.

For `Cc1c2n(c3c(C)cc(F)cc13)CCNC2=O` [Example 5, 8-Fluoro-6,10-dimethyl-3,4-dihydro-2H-pyrazino[1,2-a]indol-1-one], the melting point is 208 °C. In series [1], the EC (150% of control) amounted to 0.074 µM.

`Cc1c2n(c3c(N4CCOCC4)cc(F)cc13)CCNC2=O` [Example 6, 8-Fluoro-10-methyl-6-morpholin-4-yl-3,4-dihydro-2H-pyrazino[1,2-a]indol-1-one] gave a melting point of 226 °C. In addition, in series [1], the EC (150% of control) is 0.21 µM.

The compound `Cc1c2n(c3c(C)cc(Cl)cc13)CCNC2=O` [Example 7, 8-Chloro-6,10-dimethyl-3,4-dihydro-2H-pyrazino[1,2-a]indol-1-one] yielded a melting point of 251 °C. For the same compound, the EC (150% of control) in series [1] amounted to 0.11 µM.

`CCc1cc(F)cc2c(C)c3n(c12)CCNC3=O` [Example 8, 6-Ethyl-8-fluoro-10-methyl-3,4-dihydro-2H-pyrazino[1,2-a]indol-1-one] came in with a melting point of 177 °C. Besides, in series [1], the EC (150% of control) is 0.019 µM.

In the case of `Cc1c2n(c3c(N4CCS(=O)(=O)CC4)cc(F)cc13)CCNC2=O` [Example 9, 6-(1,1-Dioxo-1λ^6-thiomorpholin-4-yl)-8-fluoro-10-methyl-3,4-dihydro-2H-pyrazino[1,2-a]indol-1-one], the melting point was found to be 387 °C. In series [1], the EC (150% of control) worked out at 0.015 µM.

`CCc1cc(Cl)cc2c(C)c3n(c12)CCNC3=O` [Example 10, 8-Chloro-6-ethyl-10-methyl-3,4-dihydro-2H-pyrazino[1,2-a]indol-1-one] had a melting point of 191 °C. This compound also came in with an EC (150% of control) in series [1] of 0.34 µM.

The compound `C=CCc1cc(F)cc2c(C)c3n(c12)CCNC3=O` [Example 11, 6-Allyl-8-fluoro-10-methyl-3,4-dihydro-2H-pyrazino[1,2-a]indol-1-one] registered a melting point of 172 °C. In addition, in series [1], the EC (150% of control) amounted to 0.14 µM.

The compound `Cc1c2n(c3c(CCC(C)C)cc(F)cc13)CCNC2=O` [Example 12, 8-Fluoro-10-methyl-6-(3-methyl-butyl)-3,4-dihydro-2H-pyrazino[1,2-a]indol-1-one] returned a melting point of 161 °C. This compound showed an EC (150% of control) in series [1] of 0.07 µM.

Regarding `Cc1c2n(c3c(CCCC#N)cc(F)cc13)CCNC2=O` [Example 13, 4-(8-Fluoro-10-methyl-1-oxo-1,2,3,4-tetrahydro-pyrazino[1,2-a]indol-6-yl)-butyronitrile], the melting point is 194 °C. Moreover, the EC (150% of control) in series [1] amounted to 0.31 µM.

For the compound `Cc1c2n(c3c(CC(C)C)cc(Cl)cc13)CCNC2=O` [Example 14, 8-Chloro-6-isobutyl-10-methyl-3,4-dihydro-2H-pyrazino[1,2-a]indol-1-one], the melting point came to 199 °C. In series [1], this compound gave an EC (150% of control) of 0.19 µM.

With `Cc1c2n(c3c(Cc4ccc(F)cc4)cc(F)cc13)CCNC2=O` [Example 15, 8-Fluoro-6-(4-fluoro-benzyl)-10-methyl-3,4-dihydro-2H-pyrazino[1,2-a]indol-1-one], the melting point was 178 °C. In addition, the EC (150% of control) in series [1] worked out at 0.16 µM.

In turn, `Cc1c2n(c3c(N4CC5(COC5)C4)cc(F)cc13)CCNC2=O` [Example 16, 8-Fluoro-10-methyl-6-(2-oxa-6-aza-spiro[3.3]hept-6-yl)-3,4-dihydro-2H-pyrazino[1,2-a]indol-1-one] displayed a melting point of 237 °C. Besides, the EC (150% of control) in series [1] worked out at 0.23 µM.

In the case of `Cc1c2n(c3c(N4CCS(=O)(=O)CC4)cc(Cl)cc13)CCNC2=O` [Example 17, 8-Chloro-6-(1,1-dioxo-1λ^6-thiomorpholin-4-yl)-10-methyl-3,4-dihydro-2H-pyrazino[1,2-a]indol-1-one], the melting point worked out at 386 °C. Besides, the EC (150% of control) in series [1] was 0.011 µM.

In turn, `Cc1c2n(c3c(N4CCOCC4)cc(Cl)cc13)CCNC2=O` [Example 18, 8-Chloro-10-methyl-6-morpholin-4-yl-3,4-dihydro-2H-pyrazino[1,2-a]indol-1-one] came in with a melting point of 207 °C. Also, in series [1], the EC (150% of control) amounted to 0.039 µM.

For the compound `Cc1c2n(c3c(N4CCS(=O)(=O)CC4)cc(C#N)cc13)CCNC2=O` [Example 19, 6-(1,1-Dioxo-1λ^6-thiomorpholin-4-yl)-10-methyl-1-oxo-1,2,3,4-tetrahydro-pyrazino[1,2-a]indole-8-carbonitrile], the melting point is 400 °C. The EC (150% of control) in series [1] turned out to be 0.008 µM.

The compound `C#Cc1cc(F)cc2c(C)c3n(c12)CCNC3=O` [Example 20, 6-Ethynyl-8-fluoro-10-methyl-3,4-dihydro-2H-pyrazino[1,2-a]indol-1-one] displayed a melting point of 259 °C. Further, the EC (150% of control) in series [1] was 0.04 µM.

The compound `CC(C)Cc1cc(C#N)cc2cc3n(c12)CCNC3=O` [Example 21, 6-Isobutyl-1-oxo-1,2,3,4-tetrahydro-pyrazino[1,2-a]indole-8-carbonitrile] came in with a melting point of 260.5 °C. In addition, the EC (150% of control) in series [1] came out at 0.14 µM.

The compound `CC(C)Cc1cc(F)cc2cc3n(c12)CCCNC3=O` [Example 22, 9-Fluoro-7-isobutyl-2,3,4,5-tetrahydro-[1,4]diazepino[1,2-a]indol-1-one] yielded a melting point of 157 °C. In series [1], this compound had an EC (150% of control) of 0.11 µM.

For `CC(C)Cc1cc(F)cc2cc3n(c12)CCNC3=O` [Example 23, 8-Fluoro-6-(2-methylpropyl)-3,4-dihydro-2H-pyrazino[1,2-a]indol-1-one], the melting point is 229 °C. For the same compound, the EC (150% of control) in series [1] came out at 0.02 µM.

Regarding `Cc1c2n(c3c(OCC(F)(F)F)cc(F)cc13)CCNC2=O` [Example 24, 8-Fluoro-10-methyl-6-(2,2,2-trifluoroethoxy)-3,4-dihydro-2H-pyrazino[1,2-a]indol-1-one], the melting point was 239 °C. The compound further came in with an EC (150% of control) in series [1] of 0.17 µM.

`CC(C)Cc1cc(Cl)cc2cc3n(c12)CCCNC3=O` [Example 25, 9-Chloro-7-(2-methylpropyl)-2,3,4,5-tetrahydro-[1,4]diazepino[1,2-a]indol-1-one] gave a melting point of 186 °C. This compound also gave an EC (150% of control) in series [1] of 1.15 µM.

Take `CC(C)Cc1cc(Cl)cc2cc3n(c12)CCNC3=O` [Example 26, 8-Chloro-6-(2-methylpropyl)-3,4-dihydro-2H-pyrazino[1,2-a]indol-1-one]: the melting point was determined as 236 °C. The same compound returned an EC (150% of control) in series [1] of 0.16 µM.

For the compound `Cc1cc(Cl)cc2cc3n(c12)CCNC3=O` [Example 27, 8-Chloro-6-methyl-3,4-dihydro-2H-pyrazino[1,2-a]indol-1-one], the melting point is 263 °C. Besides, the EC (150% of control) in series [1] was 5.1 µM.

In turn, `Cc1cc(Cl)cc2cc3n(c12)CCCNC3=O` [Example 28, 9-Chloro-7-methyl-2,3,4,5-tetrahydro-[1,4]diazepino[1,2-a]indol-1-one] gave a melting point of 207 °C. The compound further came in with an EC (150% of control) in series [1] of 4.1 µM.

For the compound `Cc1c2n(c3c(C#N)cc(F)cc13)CCNC2=O` [Example 29, 8-Fluoro-10-methyl-1-oxo-3,4-dihydro-2H-pyrazino[1,2-a]indole-6-carbonitrile], the melting point came to 265 °C. This compound returned an EC (150% of control) in series [1] of 0.5 µM.

On to `Cc1c2n(c3c(OC(F)(F)F)cc(C#N)cc13)CCNC2=O` [Example 30, 10-Methyl-1-oxo-6-(trifluoromethoxy)-3,4-dihydro-2H-pyrazino[1,2-a]indole-8-carbonitrile], for which the melting point was 253 °C. The same compound returned an EC (150% of control) in series [1] of 0.11 µM.

For `Cc1cc(CC(C)C)c2c(c1)cc1n2CCNC1=O` [Example 31, 8-Methyl-6-(2-methylpropyl)-3,4-dihydro-2H-pyrazino[1,2-a]indol-1-one], the melting point was found to be 182 °C. In series [1], this compound yielded an EC (150% of control) of 1.16 µM.
